Data: patent publication US20220160712A1, “METHODS OF TREATING RHEUMATOID ARTHRITIS AND FOR PREDICTING THE RESPONSE TO METHOTREXATE” (CHAN ZUCKERBERG BIOHUB, INC., priority 2020, published 2022)
Several values for one entry are separate records, joined by “and”; a condition that tells them apart may be missing. Equal entries are not always repeated.

How the values were obtained:
[1] = newly diagnosed RA patients; cited from earlier work
Clostridium sporogenes = assay: RNA-seq after MTX treatment; type: cell-based; details: MTX 100 μg/ml, 30 minutes; padj<0.2, DESeq
Description: Genomes were obtained from NCBI's GenBank Assembly database. Culture media was composed of BHI+and allowed to equilibrate in an anaerobic environment prior to use. Briefly, bacteria were cultured in BHI+at 37° C. in an anaerobic chamber. Cultures for each isolate were grown to mid-exponential (achieving an OD600˜0.5), aliquoted into triplicates, treated for 30 minutes with either DMSO or MTX 100 μg/ml, and then removed from the anaerobic chamber. […]
Total RNA was subjected to rRNA depletion using Ribo-Zero Bacterial rRNA Depletion (Illumina, catalog #: MRZB12424), following the manufacturer's protocol. […] For each sample, fastq files are available in NCBI's Sequence Read Archive (SRA), accession number PRJNA656577.
Reads were trimmed using Trimmomatic (v0.32) (Bolger, A. M., et al., (2014), Bioinformatics 30, 2114-2120), and ribosomal reads were removed using SortMeRNA (v2.1) (Kopylova, E., et al., (2012), Bioinformatics 28, 3211-3217). Reads were mapped to reference genomes using Bowtie2 (Langmead, B., and Salzberg, S. L. (2012), Nat Methods 9, 357-359) using the following options: -q, —met file, —end-to-end, —sensitive. […]

[2] = Predicted concentration of MTX in the gastrointestinal (GI) tract; parameters: species or system human; details: for predicted concentration of MTX in the proximal GI tract: RA oral dose 25 mg divided by 250 ml
Description: The predicted concentration of MTX in the proximal GI tract was estimated by taking the oral dose used for rheumatoid arthritis (25 mg) and dividing it by 250 ml Dahlgren, D., and Lennernas, H. (2019), Pharmaceutics 11, 411; Dressman, J. B., et al., (1985), J Pharm Sci 74, 588-589; Shekhawat, P.B., and Pokharkar, V. B. (2017), Acta Pharm Sin B 7, 260-280), giving a concentration of 100 μg/ml or 220 μM. Further refinement of this estimate was done based on variations in the absorption of oral MTX in the proximal intestine (Grim, J., et al., (2003), Clin Pharmacokinet 42, 139-151), where it is estimated that 10-70% of the dose is not absorbed and instead delivered to the distal GI tract in RA patients. Thus, the estimated range of MTX in the GI tract was calculated to be 10-70 μg/ml with 100 μg/ml being the highest predicted concentration (prior to absorption by the host). When considering the doses used for cancer therapy (50 mg/day of oral MTX), the predicted range is 20-140 μg/ml with 200 μg/ml being the highest dose. MTX can also be given intravenously (IV) or intrathecally for the treatment of cancer (Treon, S. P., and Chabner, B. A. (1996), Clin Chem 42, 1322-1329), and is typically given at much higher doses, including as high as 800-1000 mg IV over 24 hours for the treatment of cancers such as lymphoma or acute lymphoblastic leukemia. Assuming that 30% of this is enterohepatically circulated et al., (1982), Cancer Res 42, 1279-1282), then between 240 and 300 mg would enter the GI tract, and the predicted concentration in the GI tract would be between 960-1200 μg/ml.

[3] = cancer therapy, 50 mg/day oral MTX

Compound: CN(Cc1cnc2nc(N)nc(N)c2n1)c1ccc(C(=O)N[C@@H](CCC(=O)O)C(=O)O)cc1 [MTX, methotrexate]
- patients with a robust response without escalation of therapy [1]: ~33%
- number of differentially expressed genes (Clostridium sporogenes): 21 genes
- predicted concentration in the GI tract ([2]; 800-1000 mg IV over 24 hours, assuming 30% enterohepatically circulated): 960 to 1200 µg/mL
- estimated concentration of MTX in the proximal gastrointestinal (GI) tract ([2]; Example 2): 22-220 μM and 10-100 μg/ml
- estimated range of MTX in the GI tract ([2]; RA dose, 10-70% of the dose not absorbed): 10 to 70 µg/mL
- predicted concentration of MTX in the proximal GI tract [2]: 220 µM
- predicted concentration of MTX in the proximal GI tract ([2]; highest, prior to absorption): 100 µg/mL
- highest predicted concentration of MTX in the GI tract [2, 3]: 200 µg/mL
- predicted range of MTX in the GI tract [2, 3]: 20 to 140 µg/mL
